Reference: patent EP0055702B1, “Antithrombotic treatment” (priority 1980, dated 1982)
Values joined by “and” are separate entries in the source; they are usually repeats but may differ in a detail not shown here. Identical values can stand only once.

Test system: rats
Assay: Rats fed bait containing 0.5% sodium bisulphite
Type: in vivo
Description: Five rats, each in a separate cage, were given a bait containing 0.5 percent by weight of sodium bisulphite. The bait consisted of cracked grains (wheat, corn, millet and corn meal). The amounts of bait eaten were summarized for an eleven day period.

Which results are given for Sodium bisulphite?
death of rat (2 days, Rat 1 and Rat 4, bait with 0.5% sodium bisulphite): Died; First day blood factor PT (Rat 5, bait with 0.5% sodium bisulphite): 27; First day blood factor PT, increase (Rats 1, 2, 3, bait with 0.5% sodium bisulphite): 26% increase and 24% increase and 28% increase; change in PTT, first day (three rats with increased PT): no apparent change
